Where two headings read alike, the source gives them in different places.
Assays:
[1] = biological target: T1, human 5HT1A receptor (Homo sapiens, UniProt P08908); assay: 5-HT1A Receptor Intrinsic Activity Assay (forskolin-stimulated cAMP in transfected CHO cells, RIA); assay type: cell-based; details: for Emax: Emax = 0 % means no agonist activity; for IC50: antagonist mode: reversal of agonist-induced activity, antagonist preincubated 20 minutes before agonist and forskolin
T1 construct: expressed in transfected cells; host or cells: CHO cells
T1 sequence (P08908 1-422): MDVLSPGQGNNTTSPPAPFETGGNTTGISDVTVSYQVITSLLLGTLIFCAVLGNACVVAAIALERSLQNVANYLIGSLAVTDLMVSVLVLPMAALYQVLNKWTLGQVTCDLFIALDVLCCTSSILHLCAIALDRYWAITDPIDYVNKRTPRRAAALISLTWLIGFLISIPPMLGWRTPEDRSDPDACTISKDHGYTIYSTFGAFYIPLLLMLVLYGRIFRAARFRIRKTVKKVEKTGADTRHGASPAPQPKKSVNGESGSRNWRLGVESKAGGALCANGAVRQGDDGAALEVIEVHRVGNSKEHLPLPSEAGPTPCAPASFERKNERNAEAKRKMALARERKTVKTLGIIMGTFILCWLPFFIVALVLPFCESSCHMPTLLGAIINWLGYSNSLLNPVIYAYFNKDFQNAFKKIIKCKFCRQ
Procedure: 5-HT1A Receptor Intrinsic Activity Assay
The intrinsic activity of compounds of the present invention was established by testing the claimed compounds ability to reverse the stimulation of cyclic adenosinemonophosphate (cAMP) in CHO cells stably transfected with the human 5-HT1A receptor.
Stably transfected CHO cells were grown in DMEM containing 10% heat inactivated FBS and non-essential amino acids. The cells arc plated at a density of ? x10^6 cells per well in a 24 well plate and incubated for 2 days in a CO2 incubator. On the second day, the media is replaced with 0.5 mL treatment buffer (DMEM + 25 mM HEPES, 5 mM theophylline, 10 µM pargyline) and incubated for 10 minutes at 37°C. Wells are treated with forskolin (1 µM final concentration) followed immediately by the test compound (0.1 and 1 µM for initial screen) and incubated for an additional 10 minutes at 37°C. The reaction is terminated by removal of the media and addition of 0.5 mL ice cold assay buffer (supplied in the RIA kit). Plates are stored at -20°C prior to assessment of cAMP formation by RIA. EC50 values are determined for the active test compounds. Compounds shown to have no agonist activities (Emax = 0 %) are further analyzed for their ability to reverse agonist-induced activity. In separate experiments, 6 concentrations of antagonist are preincubated for 20 minutes prior to the addition of agonist and forskolin. Cells are harvested as described above. The CAMP kit is supplied by Amersham and the RIA is performed as per kit instructions, and calculations of IC50 performed by GraphPad Prism.

[2] = biological target: T1, human 5HT1A receptor; assay: 5-HT1A Receptor Binding Assay ([3H] 8-OH-DPAT displacement in transfected CHO cells)
Procedure: 5-HT1A Receptor Binding Assay
Stably transfected CHO cells are grown in DMEM containing 10% heat inactivated FBS and non-essential amino acids. Cells are scraped off the plate, transferred to centrifuge tubes, and washed twice by centrifugation (2000 rpm for 10 min., 4"C) in buffer (50 mM Tris pH 7.5). The resulting pellets are aliquoted and placed at -80°C. On the day of assay, the cells are thawed on ice and resuspended in buffer. The binding assay is performed in a 96 well microtiter plate in a total volume of 250 µL. […] Following a 30 minute incubation at room temperature, the reaction is terminated by the addition of ice cold buffer and rapid filtration through a GF/B filter presoaked for 30 minutes in 0.5% PEI.

[3] = agonist mode: reversal of forskolin (1 µM) stimulated cAMP, CHO cells
[4] = displacement of [3H] 8-OH-DPAT (1.5 nM), CHO cells stably transfected with human 5HT1A receptor

Row | Structure (SMILES) | Emax [1, 3] [%] | IC50 [1] [nM] | Ki [2, 4] [nM] | Ki [2] [nM] | EC50 [1, 3] [nM]
1 | COc1ccc(F)cc1C1CCN(C[C@@H](Cc2ccccc2)N(C)C(=O)C2(C)CCCCC2)CC1 [Example 1, 1-Methyl-cyclohexanecarboxylic acid {(1R)-1-benzyl-2-[4-(5-fluoro-2-methoxy-phenyl)-piperidine-1-yl]-ethyl}-methyl-amide] | 0 | 11.1 | 10.7 | – | –
2 | COc1ccc(F)cc1C1=CCN(C[C@@H](Cc2ccccc2)N(C)C(=O)C2(C)CCCCC2)CC1 [Example 2, 1-Methyl-cyclohexanecarboxylic acid {(1R)-1-benzyl-2-[4-(5-fluoro-2-methoxy-phenyl)-1,2,5,6-tetrahydro-4H-pyridin-1-yl]-ethyl}-methyl-amide] | 0 | – | – | 4.9 | –
3 | COc1ccccc1C1=CCN(C[C@@H](Cc2ccccc2)NC(=O)C2CCCCC2)CC1 [Example 3, (R)-Cyclohexanecarboxylic acid{1-benzyl-2-[4-(2-methoxy-phenyl)-3,6-dihydro-2H-pyridin-1-yl]-ethyl}-amide] | 84 | – | – | – | –
4 | COc1ccccc1C1=CCN(C[C@@H](Cc2ccccc2)NC(=O)C2(C)CCCCC2)CC1 [Example 4, (R)-1-Methyl-cyclohexanecarboxylic acid{1-benzyl-2-[4-(2-methoxy-phenyl)-3,6-dihydro-2H-pyridin-1-yl]-ethyl}-amide] | 84 | – | – | – | –
5 | COc1ccccc1C1CCN(C[C@@H](Cc2ccccc2)NC(=O)C2(C)CCCCC2)CC1 [Example 5, (R)-1-Methyl-cyclohexanecarboxylic acid {1-benzyl-2-[4-(2-methoxy-phenyl)-piperidin-1-yl]-ethyl}-amide] | 0 | 0.29 | 0.24 | – | –
6 | COc1ccccc1C1CCN(C[C@@H](Cc2ccccc2)NC(=O)C2CCCCC2)CC1 [Example 6, (R)-Cyclohexanecarboxylic acid {1-benzyl-2-[4-(2-methoxy-phenyl)-piperidin-1-yl]-ethyl}-amide] | 92 | – | 0.23 | – | 16.9

Reference: patent EP1140830B1, “ARYLPIPERIDINE AND ARYL-1,2,5,6-TETRAHYDROPYRIDINE AMIDE DERIVATIVES HAVING 5HT1A RECEPTOR ACTIVITY” (Wyeth, priority 1998, dated 2000)
